Source: ChEMBL document CHEMBL3046569 (Med Chem Res, 2011)

Key:
[1] = Therapeutic index, ratio of IC50 for human H9 cells to EC50 for HIV1; type: cell-based; settings: for pTI: h9
[2] = tested on: Human immunodeficiency virus 1; assay: Antiviral activity against Human immunodeficiency virus 1 infected human H9 cells assessed as inhibition of viral replication; type: functional, organism-based; settings: Human immunodeficiency virus 1, H9

Compound | pTI [1] | EC50 ([2]; read-out: pEC50 (converted)) [nM] | selectivity ratio ([1]; H9 cells, read-out: Ratio IC50/EC50) | EC50 ([2]; read-out: EC50) [nM]
C=C(C)[C@@H]1CC[C@]2(CNC(=O)CC(C)(C)CC(=O)O)CC[C@]3(C)[C@H](CC[C@@H]4[C@@]5(C)CC[C@H](NC(=O)CC(C)(C)CC(=O)O)C(C)(C)[C@@H]5CC[C@]43C)[C@@H]12 | -1.564 | 570 | – | –
C=C(C)[C@@H]1CC[C@]2(C(=O)O)CC[C@]3(C)[C@H](CC[C@@H]4[C@@]5(C)CC[C@H](O)C(C)(C)[C@@H]5CC[C@]43C)[C@@H]12 (stereo in doubt; 8) [BETULINIC ACID] | -1.146 | 899 | – | –
CC(C)[C@@H]1CC[C@]2(C(=O)O)CC[C@]3(C)[C@H](CC[C@@H]4[C@@]5(C)CC[C@H](OC(=O)CC(C)(C)C(=O)O)C(C)(C)[C@@H]5CC[C@]43C)[C@@H]12 | -4.146 | 0.3 | – | –
C=C(COC(=O)CC1(CC(=O)O)CCCC1)[C@@H]1CC[C@]2(COC(=O)CC3(CC(=O)O)CCCC3)CC[C@]3(C)[C@H](CC[C@@H]4[C@@]5(C)CC[C@H](OC(=O)CC6(CC(=O)O)CCCC6)C(C)(C)[C@@H]5CC[C@]43C)[C@@H]12 | -3.076 | 5.4 | – | –
CCC(C)(CC(=O)O)CC(=O)OC[C@]12CC[C@@H](C(C)C)[C@@H]1[C@H]1CC[C@@H]3[C@@]4(C)CC[C@H](OC(=O)CC(C)(CC)CC(=O)O)C(C)(C)[C@@H]4CC[C@@]3(C)[C@]1(C)CC2 (stereo not given in full) | -2.395 | 75 | – | –
C=C(C)[C@@H]1CC[C@]2(COC(=O)CCC(=O)O)CC[C@]3(C)[C@H](CC[C@@H]4[C@@]5(C)CC[C@H](OC(=O)CCC(=O)O)C(C)(C)[C@@H]5CC[C@]43C)[C@@H]12 | -0.969 | 3800 | – | –
C=C(C)[C@@H]1CC[C@]2(C(=O)O)CC[C@]3(C)[C@H](CC[C@@H]4[C@@]5(C)CC[C@H](OC(=O)CC(C)(C)C(=O)O)C(C)(C)[C@@H]5CC[C@]43C)[C@@H]12 [BEVIRIMAT] | -4.301 | 0.3 | 20000 | 0.35
CC(C)[C@@H]1CC[C@]2(C(=O)OCc3ccccc3)CC[C@]3(C)[C@H](CC[C@@H]4[C@@]5(C)CC[C@H](OC(=O)CCCC(=O)O)C(C)(C)[C@@H]5CC[C@]43C)[C@@H]12 | -1.279 | 500 | – | –
C=C(C)[C@@H]1CC[C@]2(COC(=O)CC3(CC(=O)O)CCCC3)CC[C@]3(C)[C@H](CC[C@@H]4[C@@]5(C)CCC(=O)C(C)(C)[C@@H]5CC[C@]43C)[C@@H]12 | -0.477 | 4300 | – | –
